# Tested on: Runx2
# Assay: Runx2 activity, 6xOSE2-Luc luciferase reporter in transfected C2C12 cells
# Type: cell-based, Mouse
# Conditions: 24 hrs; for fold induction at 2.5 µM / fold induction at 5 µM / fold induction at 10 µM / fold induction at 20 µM: Mus musculus, read-out: luciferase activity relative to control set as 1
# Method: Mouse premyoblast cell (C2C12 cell) was transfected using receptor vector 6xOSE2-Luc in order to investigate the activity of the amide compound of the present invention on Runx2.
# Specifically, the receptor vector 6xOSE2-Luc was prepared by inserting an artificial promoter linked by six tandem copies of the OSE2 (osteoblast specific element-2) into vector pGL3 (Promega; Madison, Wis., U.S.A.), and then, cloned into the C2C12 cell to be transfected (Kim et al., Journal of Cellular Biochemistry, 91: 1239-1247, 2004). The OSE2 is the binding site of Runx2 in the promoter of osteocalcin which is a bone marker.
# C2C12 cells (5,000 cells/well) were plated onto 96-well plates using 10% FBS (fetal bovine serum; Hyclone)-containing DMEM (Dulbecco's Modified Eagle's Medium), the medium was replaced with 5% FBS-containing DMEM after 24 hrs, and treated with each of the amide compounds obtained in Examples 1 to 94 at various concentrations of 2.5 μM, 5.0 μM, 10 μM, and 20 μM. As a control, dimethyl sulfoxide (DMSO) vehicle was applied to the cell in an amount same as that of the amide compound. After 24 hrs, the luciferase activity in the cell lysate was measured by using Dual-Luciferase Reporter Assay System (Promega). The luciferase activity of the amide compound of the present invention was calculated as a value relative to that observed for the control which was set as 1.
Structure (SMILES),fold induction at 2.5 µM (2.5 μM),fold induction at 5 µM (5.0 μM),fold induction at 10 µM (10 μM),fold induction at 20 µM (20 μM),luciferase activity relative to control set as 1 (2.5 μM) [fold],luciferase activity relative to control set as 1 (5.0 μM) [fold],luciferase activity relative to control set as 1 (10 μM) [fold],luciferase activity relative to control set as 1 (20 μM) [fold]
"COc1cc2c(c(-c3ccccc3)c1OC)CN(CCCCCC(=O)Nc1ccccc1N)C2=O [Example 31, N-(2-aminophenyl)-6-(5,6-dimethoxy-1-oxo-4-phenylisoindolin-2-yl)hexanamide]",12.2,21.2,26.2,29.3,–,–,–,–
"Cc1cc(C)cc(-c2cccc3c2CN(Cc2ccc(C(=O)Nc4ccccc4N)cc2)C3=O)c1 [Example 12, N-(2-aminophenyl)-4-((4-(3,5-dimethylphenyl)-1-oxoisoindolin-2-yl)methyl)benzamide]",5.5,9,12.2,10.4,–,–,–,–
"Cc1cc(C(=O)NCCCCCC(=O)Nc2ccccc2N)ccc1-c1cccnc1 [Example 88, N-(5-(2-aminophenylcarbamoyl)pentyl)-3-methyl-4-(3-pyridinyl)-benzamide]",6,16.8,28.1,41.2,–,–,–,–
"Nc1ccccc1NC(=O)c1ccc(CN2Cc3cc(-c4ccccc4)ccc3C2=O)cc1 [Example 57, N-(2-aminophenyl)-4-((1-oxo-5-phenylisoindolin-2-yl)methyl)benzamide]",7.3,8.9,10.9,10.7,–,–,–,–
"COc1cc2c(c(-c3cccnc3)c1OC)CN(Cc1ccc(C(=O)Nc3cc(-c4cccs4)ccc3N)cc1)C2=O [Example 48, N-(2-amino-5-(thiophen-2-yl)phenyl)-4-((5,6-dimethoxy-1-oxo-4-(pyridin-3-yl)isoindolin-2-yl)methyl)benzamide]",3.7,7.2,11.4,14.3,–,–,–,–
"Nc1ccccc1NC(=O)c1ccc(CN2Cc3c(cccc3-c3ccc(-c4ccccc4)cc3)C2=O)cc1 [Example 25, N-(2-aminophenyl)-4-[1-oxo-4-(4-phenylphenyl)-2,3-dihydro-1H-isoindol-2-yl]methylbenzamide]",6.8,11.3,17.9,19.7,–,–,–,–
"Cc1c(Br)cccc1C(=O)NCCCCCC(=O)Nc1ccccc1N [Example 80, N-(5-(2-aminophenylcarbamoyl)pentyl)-3-bromo-2-methylbenzamide]",0.9,1.8,2.7,5.4,–,–,–,–
"COc1cc2c(c(-c3cc(F)cc(F)c3)c1OC)CN(CCCCCC(=O)Nc1ccccc1N)C2=O [Example 34, N-(2-aminophenyl)-6-(4-(3,5-difluorophenyl)-5,6-dimethoxy-1-oxoisoindolin-2-yl)hexanamide]",3.7,7.4,18,23,–,–,–,–
"COc1cc(C(=O)NCc2ccc(C(=O)Nc3ccccc3N)cc2)c(C)c(-c2ccc(C(F)(F)F)cc2)c1OC [Example 78, N-(2-aminophenyl)-4-((2-methyl-3-(4-trifluoromethylphenyl)-4,5-dimethoxy-benzamido)methyl)benzamide]",6.4,12.8,19.1,21.1,–,–,–,–
"Cc1c(C(=O)NCc2ccc(C(=O)Nc3ccccc3N)cc2)cccc1-c1ccccc1 [Example 69, N-(2-aminophenyl)-4-((2-methyl-3-phenyl-benzamido)methyl)benzamide]",13.5,22,29.2,30.6,–,–,–,–
"COc1ccc(-c2cccc3c2CN(CCCCCC(=O)NO)C3=O)cc1OC [Example 40, N-hydroxy-6-(4-(3,4-dimethoxyphenyl)-1-oxoisoindolin-2-yl)hexanamide]",1.1,1.1,1.7,1.6,–,–,–,–
"COc1ccc(-c2ccc(C(=O)NCCCCCC(=O)Nc3ccccc3N)cc2C)c(OC)c1 [Example 87, N-(5-(2-aminophenylcarbamoyl)pentyl)-3-methyl-4-(2,4-dimethoxyphenyl)-benzamide]",1.7,2.6,5.6,8.5,–,–,–,–
"O=C(CCCCCN1Cc2c(cccc2-c2cccnc2)C1=O)NO [Example 43, N-hydroxy-6-(1-oxo-4-(pyridin-3-yl)isoindolin-2-yl)hexanamide]",1.1,1.3,1.8,3.2,–,–,–,–
"Cc1c(C(=O)NCc2ccc(C(=O)Nc3ccccc3N)cc2)cccc1-c1cccc(N)c1 [Example 72, N-(2-aminophenyl)-4-((2-methyl-3-(3-aminophenyl)benzmido)methyl)benzamide]",–,–,–,–,17.6,29.8,29.6,31.4
"Cc1cc(C)cc(-c2cccc3c2CN(CCCCCC(=O)NO)C3=O)c1 [Example 41, N-hydroxy-6-(4-(3,5-dimethylphenyl)-1-oxoisoindolin-2-yl)hexanamide]",2.5,4.6,12.4,28,–,–,–,–
"NC(=O)c1cccc(-c2cccc3c2CN(Cc2ccc(C(=O)Nc4ccccc4N)cc2)C3=O)c1 [Example 26, 3-[2-(4-[(2-aminophenyl)carbamoyl]phenylmethyl)-1-oxo-2,3-dihydro-1H-isoindol-4-yl]benzamide]",1.6,2.3,4.4,18.4,–,–,–,–
"COc1cc2c(c(-c3ccc(C(F)(F)F)cc3)c1OC)CN(CCCCCC(=O)Nc1ccccc1N)C2=O [Example 35, N-(2-aminophenyl)-6-(4-(4-(trifluoromethyl)phenyl)-5,6-dimethoxy-1-oxoisoindolin-2-yl)hexanamide]",2.9,6.7,14.2,22.3,–,–,–,–
"Nc1cccc(-c2cccc3c2CN(Cc2ccc(C(=O)Nc4ccccc4N)cc2)C3=O)c1 [Example 18, N-(2-aminophenyl)-4-((4-(3-aminophenyl)-1-oxoisoindolin-2-yl)methyl)benzamide]",15.3,16.2,20.2,18.5,–,–,–,–
"COc1ccc(-c2c3c(cc(OC)c2OC)C(=O)N(Cc2ccc(C(=O)Nc4ccccc4N)cc2)C3)cc1OC [Example 7, N-(2-aminophenyl)-4-((5,6-dimethoxy-4-(3,4-dimethoxyphenyl)-1-oxoisoindolin-2-yl)methyl)benzamide]",24.6,26.9,24.3,18.4,–,–,–,–
"Nc1ccccc1NC(=O)c1ccc(CN2Cc3cc(-c4ccc5ccccc5c4)ccc3C2=O)cc1 [Example 67, N-(2-aminophenyl)-4-((5-(naphthalen-2-yl)-1-oxoisoindolin-2-yl)methyl)benzamide]",1.4,2,2.9,6.1,–,–,–,–
"COc1ccc(-c2c3c(cc(OC)c2OC)C(=O)N(Cc2ccc(C(=O)Nc4ccccc4N)cc2)C3)cc1 [Example 5, N-(2-aminophenyl)-4-((5,6-dimethoxy-4-(4-methoxyphenyl)-1-oxoisoindolin-2-yl)methyl)benzamide]",30.4,25.3,17.7,15.4,–,–,–,–
"CC(=O)Nc1cccc(-c2cccc3c2CN(Cc2ccc(C(=O)Nc4ccccc4N)cc2)C3=O)c1 [Example 23, N-(2-aminophenyl)-4-[4-(3-acetamidophenyl)-1-oxo-2,3-dihydro-1H-isoindol-2-yl]methylbenzamide]",3.9,5.1,18.1,33.2,–,–,–,–
"O=C(CCCCCN1Cc2cc(-c3cc(F)cc(F)c3)ccc2C1=O)NO [Example 53, 6-(5-(3,5-difluorophenyl)-1-oxoisoindolin-2-yl)-N-hydroxyhexanamide]",1.7,3,5.6,13.3,–,–,–,–
"O=C(CCCCCN1Cc2c(cccc2-c2ccc(C(F)(F)F)cc2)C1=O)NO [Example 44, 6-(4-(4-(trifluoromethyl)phenyl)-1-oxoisoindolin-2-yl)-N-hydroxyhexanamide]",1.2,1.2,1.3,1.4,–,–,–,–
"Cc1c(C(=O)NCCCCCC(=O)Nc2ccccc2N)cccc1-c1ccncc1 [Example 84, N-(5-(2-aminophenylcarbamoyl)pentyl)-2-methyl-3-(4-pyridinyl)-benzamide]",1.9,3.3,7.8,17.3,–,–,–,–
